The NIST ThermoML archive (doi:10.1016/j.jct.2013.05.029)
± gives the expanded uncertainty stated by the source.

Assay: refractive index (other wavelength) (dimensionless); xn = mol fraction of the nth substance listed
Settings: 101 kPa, Liquid, Wavelength=633 nm, Standard Abbe refractometry

CCCCCCCCCC [decane] + COC(=O)OC
Settings	refractive index
280.97 K, x2 = 0.517	1.4023 ± 0.002
280.97 K, x2 = 0.915	1.3807 ± 0.0021
281.95 K, x2 = 0.537	1.4011 ± 0.002
281.95 K, x2 = 0.913	1.3805 ± 0.002
283 K, x2 = 0.549	1.4002 ± 0.002
283 K, x2 = 0.903	1.3808 ± 0.002
284.42 K, x2 = 0.581	1.3983 ± 0.002
284.42 K, x2 = 0.89	1.3811 ± 0.002
285.51 K, x2 = 0.615	1.3964 ± 0.0021
285.51 K, x2 = 0.876	1.3817 ± 0.0021
286.06 K, x2 = 0.63	1.3954 ± 0.0021
286.06 K, x2 = 0.867	1.382 ± 0.002
286.31 K, x2 = 0.641	1.3948 ± 0.002
286.31 K, x2 = 0.859	1.3825 ± 0.002
286.44 K, x2 = 0.65	1.3943 ± 0.002
286.44 K, x2 = 0.855	1.3827 ± 0.002
286.64 K, x2 = 0.663	1.3936 ± 0.0021
286.64 K, x2 = 0.849	1.383 ± 0.002
286.84 K, x2 = 0.671	1.3932 ± 0.0021
286.84 K, x2 = 0.842	1.3834 ± 0.002
286.94 K, x2 = 0.677	1.3928 ± 0.0021
286.94 K, x2 = 0.837	1.3837 ± 0.002
287.03 K, x2 = 0.689	1.3922 ± 0.0021
287.03 K, x2 = 0.831	1.3841 ± 0.0026
287.13 K, x2 = 0.692	1.392 ± 0.0021
287.13 K, x2 = 0.827	1.3843 ± 0.0024
287.21 K, x2 = 0.703	1.3914 ± 0.002
287.21 K, x2 = 0.708	1.3911 ± 0.0021
287.21 K, x2 = 0.819	1.3847 ± 0.0023
287.21 K, x2 = 0.824	1.3844 ± 0.0023
287.23 K, x2 = 0.705	1.3913 ± 0.002
287.23 K, x2 = 0.712	1.3909 ± 0.0021
287.23 K, x2 = 0.815	1.385 ± 0.0022
287.23 K, x2 = 0.82	1.3847 ± 0.0036
287.26 K, x2 = 0.716	1.3907 ± 0.0021
287.26 K, x2 = 0.817	1.3849 ± 0.0021
287.27 K, x2 = 0.712	1.3909 ± 0.0021
287.27 K, x2 = 0.813	1.3851 ± 0.0023
287.28 K, x2 = 0.716	1.3907 ± 0.0021
287.28 K, x2 = 0.817	1.3849 ± 0.0021
287.29 K, x2 = 0.716	1.3907 ± 0.0021
287.29 K, x2 = 0.809	1.3853 ± 0.0021
287.31 K, x2 = 0.72	1.3905 ± 0.0021
287.31 K, x2 = 0.814	1.385 ± 0.0022
287.32 K, x2 = 0.72	1.3905 ± 0.0021
287.32 K, x2 = 0.723	1.3903 ± 0.0021
287.32 K, x2 = 0.729	1.39 ± 0.0022
287.32 K, x2 = 0.804	1.3857 ± 0.0039
287.32 K, x2 = 0.806	1.3855 ± 0.0022
287.32 K, x2 = 0.809	1.3853 ± 0.002
287.35 K, x2 = 0.725	1.3902 ± 0.0021
287.35 K, x2 = 0.731	1.3899 ± 0.0021
287.35 K, x2 = 0.735	1.3896 ± 0.002
287.35 K, x2 = 0.741	1.3893 ± 0.0021
287.35 K, x2 = 0.796	1.3861 ± 0.0021
287.35 K, x2 = 0.799	1.3859 ± 0.002
287.35 K, x2 = 0.803	1.3857 ± 0.0035
287.35 K, x2 = 0.809	1.3853 ± 0.0021
287.36 K, x2 = 0.737	1.3895 ± 0.003
287.36 K, x2 = 0.798	1.386 ± 0.002
287.37 K, x2 = 0.737	1.3895 ± 0.0021
287.37 K, x2 = 0.741	1.3893 ± 0.0021
287.37 K, x2 = 0.79	1.3865 ± 0.0021
287.37 K, x2 = 0.796	1.3861 ± 0.002
